Reference: US20110045522A1, “METHODS FOR DIAGNOSING DIABETES AND DETERMINING EFFECTIVENESS OF TREATMENTS” (priority 2009, published 2011)

Experiments:
[1] = tested on: IL-1Ra production in human kidney proximal tubular cell line (HK-2); test: IL-1Ra production in HK-2 cell culture media, ELISA; format: cell-based; conditions: HK-2 cells; for concentration of IL-1Ra: FIG. 1B
Experimental: Human kidney proximal cell line is commercially available and may be purchased, for example, from American Type Culture Collection (ATCC) under the symbol HK-2.
The immortalized human kidney proximal tubular cell line (HK-2) was cultured in DMEM/F12 containing 2.50 g/l HEPES, 1.80 g/l sodium bicarbonate, 100 U/ml penicillin, […] streptomycin, and 10% FCS at 37° C. in 5% CO2. After being digested with 0.25% trypsin, 1×10^5 cells were grown in 50 ml plastic culture bottles. The cells were cultured overnight in DMEM/F12 5% FCS; then, media were changed to fresh DMEM/F12 5% FCS containing diacerin with various concentrations of 2.0 μg/ml, 2.5 μg/ml, 3.0 μg/ml, 5.0 μg/ml, 10 μg/ml, 20 μg/ml, and negative (5% FCS) controls. Cultures were continued for further time points of 0 hour, 0.5 hour, 1 hour, 3 hours, 5 hours, 8 hours, 16 hours, 32 hours, and 72 hours. Upon reaching each time point, the media were collected. The cell culture method is well explained in Yao, et al, Preventive Effects of Salvianolic Acid on Transforming Growth Factorb 1-Induced Epithelial-to-Mesenchymal Transition of Human Kidney Cells, Biol. Pharm. Bull. 2009, 32(5) 882-886.
The collected media at each time point and concentration were assayed for IL-1Ra concentrations using ELISA assays.

[2] = tested on: IL-1β; conditions: human OA cartilage and synovial tissue cultures; cited from earlier work
[3] = tested on: IL-1 receptor antagonist (IL-1Ra); conditions: cartilage culture media; cited from earlier work
[4] = tested on: INS-1E cells; conditions: reported in the literature; positive control; cited from earlier work

Compound | concentration of IL-1Ra ([1]; 5 μg/ml diacerin, 16 hours treatment) | concentration of IL-1Ra ([1]; 10 μg/ml diacerin, 16 hours treatment) | concentration of IL-1Ra ([1]; 20 μg/ml diacerin, 16 hours treatment) | concentration at which IL-1Ra production was first observed ([1]; 16 hours treatment) | effect on IL-1Ra production ([1]; 16 hours treatment) | dose-dependent effect on production of IL-1Ra ([1]; 32 hours treatment) | dose-dependent effect on production of IL-1Ra ([1]; 72 hours treatment) | IL-1β production [2] | IL-1Ra levels [3] | IL-1β-induced INS-1E cell apoptosis [4]
CC(=O)Oc1cccc2c1C(=O)c1c(OC(C)=O)cc(C(=O)O)cc1C2=O [diacerin, 4,5-bis(acetyloxy)-9,10-dioxo-2-anthracene carboxylic acid] | approximately 0.8 pg/ml | approximately 1.3 pg/ml | approximately 4.2 pg/ml | 5 µg/mL | dose-dependently increased | diminished | diminished | significantly inhibited | increased | –
Exendin-4: positive control, reported to inhibit IL-1β-induced INS-1E cell apoptosis | – | – | – | – | – | – | – | – | – | inhibit
O=C(O)c1cc(O)c2c(c1)C(=O)c1cccc(O)c1C2=O [rhein, 9,10-dihydro-4,5-dihydroxy-9,10-dioxo-2-anthracenecarboxylic acid] | – | – | – | – | – | – | – | significantly inhibited | increased | –
